Data on three compounds can be found in patent publication US20120252829A1, “TIVOZANIB AND CAPECITABINE COMBINATION THERAPY” (priority 2011, published 2012).

Data set [1] concerns Her2-driven breast tumor (BH) model. Nature of the data set: tumor growth in Her2-driven breast tumor (BH) mouse model. The data set is classed as in vivo. To be noted: tivozanib 5 mg/kg daily, capecitabine 300 mg/kg daily 2 weeks on, 1 week off, oral, more than 4 weeks; FIG. 1. The protocol:
(§1) The Her2-driven breast tumor (BH) model used herein has the following genotype: MMTVrTTA, tetO HER2, INK4A(−/−), luciferase reporter.
When tumors reached approximately 200 mm^3, the mice were randomized into 4 groups of 10 mice each. One group received vehicle control. Each of the other 3 groups were treated with one of the two agents either administered alone or in combination. Both agents were administered orally.
Capecitabine was dosed at 300 mg/kg daily for two weeks followed by a one week break (2 weeks on, 1 week off) for more than 4 weeks.

For data set [2] the test system is unchanged. Nature of the data set: tumor cell proliferation by Ki67 immunohistochemistry. Type of data set: in vivo, mouse. The procedure:
as §1
To determine the mechanism of action of the combination therapy, capecitabine was administered alone and in combination with tivozanib, over two dosage cycles (FIG. 2A). Capecitabine was dosed at 300 mg/kg daily for two weeks, followed by a seven day break, and then an additional two weeks of capecitabine at 300 mg/kg daily. Tivozanib was dosed at 5 mg/kg daily for 5 weeks.

The subject of another data set is tumor blood vessels. Nature of the data set: inhibition of angiogenesis in tumors. To be noted: tivozanib 5 mg/kg daily 5 weeks, capecitabine 300 mg/kg daily two weeks, seven day break, FIG. 4. The data set is classed as in vivo, mouse. The procedure:
An experiment was designed to evaluate the effect of the combination therapy on angiogenesis (FIG. 4). Tivozanib was dosed at 5 mg/kg daily for 5 weeks. Capecitabine was dosed at 300 mg/kg daily for two weeks, followed by a seven day break, and then an additional two weeks of capecitabine at 300 mg/kg daily.

For data set [3] the following is noted: cited from earlier work.
For data set [4] the following is noted: cited from earlier work. This is another data set of the same source.
The conditions of data set [5]: oral administration of capecitabine; human xenograft tumors in mice; cited from earlier work. A general note: Xenograft models place foreign cells or tissue in a host animal.
Data set [6] concerns thymidine phosphorylase (TP). The data set can be described thus: TP induction in BH216-derived primary culture, qRT-PCR. Type of data set: cell-based, mouse. To be noted: cultured BH216 tumor cells; 0.01-1000 nM, 3 hours. In general terms: Real-time PCR tracks product formation cycle by cycle.
In data set [7] the test system is thymidine phosphorylase (TP). To be noted: BH216 tumors; one dose at or about maximum tolerated dosage; tumors collected after 6 hours (also 24 hours for B20-4.1).
Experimental: Each of the VEGF inhibitors were administered at or about their respective maximum tolerated dosages.
For another data set, the target named is VEGF receptor 3 (Homo sapiens, UniProt P35916). To be noted: cited from earlier work.
The test system of another data set is tumor. To be noted: preclinical models; cited from earlier work.
For data set [8] the following is noted: 272-patient Phase 2 clinical trial; cited from earlier work.
For data set [9], the system named is thymidine phosphorylase (TP). The data set can be described thus: TP expression in murine breast tumors after tivozanib, qRT-PCR.
Experimental: Murine breast tumors (BH216, BH225, BH229 and BH281) were introduced subcutaneously into nude mice. For each tumor type, when tumors reached approximately 250 mm^3, the mice were randomized into five groups, with three mice in each group. One group received vehicle (0.5% methyl-cellulose) and the remaining groups each received one dose of 5 mg/kg tivozanib. The mice were sacrificed and tumors collected at 0.5, 2, 6 and 16 hours post-dose. RNA was extracted from the tumors and TP expression was analyzed with qRT-PCR.

Like-named read-outs stand apart in the source and are kept apart here.

Chain of VEGF receptor 3 (P35916 25-1363): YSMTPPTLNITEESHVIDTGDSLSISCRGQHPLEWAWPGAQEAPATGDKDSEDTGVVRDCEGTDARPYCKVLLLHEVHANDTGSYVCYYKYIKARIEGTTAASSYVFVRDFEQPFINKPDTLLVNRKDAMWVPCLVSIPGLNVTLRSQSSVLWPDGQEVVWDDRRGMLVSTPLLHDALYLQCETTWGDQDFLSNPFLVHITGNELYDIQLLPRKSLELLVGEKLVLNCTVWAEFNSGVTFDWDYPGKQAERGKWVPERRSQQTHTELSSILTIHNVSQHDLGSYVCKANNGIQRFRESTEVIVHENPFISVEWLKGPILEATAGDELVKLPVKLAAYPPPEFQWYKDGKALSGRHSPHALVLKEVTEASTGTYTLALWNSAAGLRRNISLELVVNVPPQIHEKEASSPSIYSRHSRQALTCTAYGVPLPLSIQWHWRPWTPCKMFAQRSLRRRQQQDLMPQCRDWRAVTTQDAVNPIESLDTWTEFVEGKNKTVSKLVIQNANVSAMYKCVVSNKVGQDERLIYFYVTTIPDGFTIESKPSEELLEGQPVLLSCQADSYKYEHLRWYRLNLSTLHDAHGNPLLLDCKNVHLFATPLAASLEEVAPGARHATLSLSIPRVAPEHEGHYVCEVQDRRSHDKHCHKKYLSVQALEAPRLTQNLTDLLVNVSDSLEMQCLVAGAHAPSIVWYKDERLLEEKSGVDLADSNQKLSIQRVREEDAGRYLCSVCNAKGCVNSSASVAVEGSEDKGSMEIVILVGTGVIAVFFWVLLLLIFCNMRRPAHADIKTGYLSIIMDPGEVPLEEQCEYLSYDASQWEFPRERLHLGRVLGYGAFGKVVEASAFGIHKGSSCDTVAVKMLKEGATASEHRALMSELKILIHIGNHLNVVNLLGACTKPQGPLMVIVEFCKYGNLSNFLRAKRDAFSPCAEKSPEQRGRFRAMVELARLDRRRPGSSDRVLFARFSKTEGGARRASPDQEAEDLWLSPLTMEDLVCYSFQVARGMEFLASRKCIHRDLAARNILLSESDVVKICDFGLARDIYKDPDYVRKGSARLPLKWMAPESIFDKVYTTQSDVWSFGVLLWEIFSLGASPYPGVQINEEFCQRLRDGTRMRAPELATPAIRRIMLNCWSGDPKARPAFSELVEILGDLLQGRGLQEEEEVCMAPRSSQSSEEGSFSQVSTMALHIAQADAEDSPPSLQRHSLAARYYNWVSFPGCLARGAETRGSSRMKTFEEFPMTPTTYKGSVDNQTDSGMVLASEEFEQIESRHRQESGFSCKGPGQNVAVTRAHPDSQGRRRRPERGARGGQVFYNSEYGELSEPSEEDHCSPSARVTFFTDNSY

`CCCCCOC(=O)Nc1nc(=O)n([C@@H]2O[C@H](C)[C@@H](O)[C@H]2O)cc1F` [capecitabine, 5′-deoxy-5-fluoro-N-[(pentyloxy)carbonyl]-cytidine]: in [1], the tumor growth entry is reported as “only moderate reduction in tumor growth”. Further, the tumor cell proliferation entry in data set [2] (capecitabine 300 mg/kg daily, first two weeks) is on record as “reduced tumor cell proliferation”. The “tumor cell proliferation between capecitabine cycles” value in data set [2] (during break periods) is reported as “tumor cell proliferation rebound”. For the same compound, the angiogenesis result in the data set with tumor blood vessels is reported as “no change in the angiogenesis profile”. For the same compound, the side effects result in data set [3] (capecitabine, can be severe) was “hand-and-foot syndrome (pain, swelling or redness of your hands or feet), diarrhea, nausea, vomiting, dehydration, sores in the mouth and throat, stomach area pain, tiredness or weakness, fever, and joint and muscle pain”. Also, the elimination half-life result in data set [4] (human body) is “approximately ¾”. Besides, in data set [5], the “5-FU AUC in tumors versus plasma” value is reported as 100-200 fold.

For `O=c1[nH]cc(F)c(=O)[nH]1` [fluorouracil, 5-fluoro-2,4-(1H,3H)-pyrimidinedione], the “area under the curve (AUC) of fluorouracil, higher at day 14 than day 1” value in data set [4] (after capecitabine, day 14 vs day 1) is reported as 35%. Moreover, the “half-life of primary metabolite of capecitabine” value in [4] (relative to parent compound) is on record as “same approximate half-life of the parent compound”.

`COc1cc2nccc(Oc3ccc(NC(=O)Nc4cc(C)on4)c(Cl)c3)c2cc1OC` [tivozanib, N-{2-chloro-4-[(6,7-dimethoxy-4-quinolyl)oxy]-phenyl}-N′-(5-methyl-3-isoxazolyl)urea]: in [1], the tumor growth result is “only moderate reduction in tumor growth”. The angiogenesis result with tumor blood vessels is “only a reduction in vessel size but not microvessel density”. Further, the TP induction entry in [6] is recorded as “TP induction was observed”; in data set [7] it was “significant TP induction”. The inhibitory activity entry at VEGF receptor 3 is “picomolar”. For the same compound, the antitumor activity entry in the data set with tumor was “exhibits antitumor activity”. Further, the clinical trial results in data set [8] is on record as “positive results”. For the same compound, the “most common side effects” value in [3] (Phase 1, Phase 2 and Phase 3 clinical trials) is “hypertension and dysphonia”. For the same compound, the “time for serum levels to reach steady state” value in [4] (chronic dosing) is on record as 2-3 weeks. In [4] (human body), the half-life – broadly, how long it takes for the measured level to halve – was 91.2 to 113 h. The “up-regulation of TP” value in data set [9] (BH216 tumors, 6 hours after tivozanib 5 mg/kg) is recorded as “approximately 8 fold”. The TP expression entry in data set [9] (BH216 tumors, 16 hours post-dose, tivozanib 5 mg/kg) is “significant elevation in TP expression”. The TP up-regulation result in [9] (BH229 tumor, tivozanib 5 mg/kg) is on record as “no TP up-regulation”; in [9] (BH281 tumor, tivozanib 5 mg/kg), “no TP up-regulation”.
